Patent US20250108038A1 (priority 2023, published 2025)
Read-outs that look alike come from different tables or passages of the source.

Tests used:
[1] = biological target: MATE2-K (Homo sapiens, UniProt Q86VL8); test: Uptake transporter inhibition assay, MATE2-K (metformin)
[2] = in vitro; settings: for % Remaining / Aa/Ai Mean (N = 2) / T1/2: 2.0 μM; for T1/2: 60 min incubation
[3] = tested on: Wistar rats; test: Five Choice Serial Reaction Time Task, variable intertrial interval (vITI), acute; type: in vivo, Wistar rat; settings: for % hit rate: Compound I-4 0.1-1.0 mg/kg ip, Compound I-19 0.03-1.0 mg/kg ip; for % correct / Magazine Head Entries / Omissions / number of trials completed / perseverative responses / premature responses / response latencies (correct, incorrect) / reward latencies / timeout responses: same doses
Procedure: Animals were trained in eight automated 5C-SRTT operant chambers (Med Associates, St. Albans, VT, USA), controlled by MedPC software (Med Associates). Briefly, each operant chamber was equipped with 5 apertures containing a photocell beam to detect nose pokes and a lamp (2.8 W) that could be illuminated randomly at varying durations. Food pellets (45 mg chow pellet, BioServ, Frenchtown, NJ, USA) were delivered automatically to a magazine, located on the opposite wall to the nose pokes, that was also equipped with a light that turned on to indicate that a pellet had been dispensed. The house-light remained on for the entire session unless an error or omission occurred. Training sessions began with the delivery of a food reward and retrieval triggered the first trial. […] Training began with the stimulus duration set at 10 sec, a limited hold period of 5 sec and an ITI of 5 sec. […] Sessions ended when 40 minutes had lapsed or 100 trials had been completed.
Upon meeting the performance criteria, animals were assessed in the vSD version of the task where the following stimulus durations were presented in a pseudorandom manner: 0.3, 0.6 and 0.9 sec. Later, subjects were assessed in the vITI version where 2.5, 5.0 and 10.0 sec ITIs were employed in a pseudorandom manner. Performance parameters measured were: % hit ((# correct/(# correct+# incorrect including omissions))×100); % correct ((# correct/(# correct+# incorrect excluding omissions))×100); premature responses (# of nose-pokes into any aperture after trial initiation but before onset of the stimulus light); timeout responses (# of nose pokes into any aperture during a timeout period), perseverative responses (# of nose pokes occurring after the correct response had been made but before reward collection); # of food magazine head entries, omissions and total trials completed. The latency to correct response (time taken from the onset of the nose poke light stimulus to making the correct nose poke response), latency to incorrect response (time taken from onset of nose poke light stimulus to making the incorrect nose poke response), and latency to reward (i.e., the magazine latency, time taken from making a correct nose poke response to retrieving the reward from the magazine) was also recorded.
Drug doses and vehicle were administered in a pseudorandom fashion. Drug or vehicle sessions were performed 1-2 times per week with maintenance training (behavioral testing without drug or vehicle injections) interspersed.
All data were collated and entered into Microsoft Excel spreadsheets. The data were subsequently imported into StatView 5.0 for statistical analyses. One and two factor analysis of variance (ANOVA) tests were used with repeated measures when indicated, followed by Fisher LSD or Student Newman Keuls as post-hoc tests. All results were expressed as the mean (±S.E.M.). Differences between means from experimental groups were considered significant at the p<0.05 level. The statistical F values and degrees of freedom associated with the two factor ANOVA analyses are provided in the text of this report. Please refer to the statistical reports in the appendices for the values associated with one factor ANOVAs for the overall means and overall total values.

[4] = 0.04 μM nominal, IC50 determination
[5] = 0.12 μM nominal, IC50 determination
[6] = 1.11 μM nominal, IC50 determination
[7] = 10.00 μM nominal, IC50 determination
[8] = 30.00 μM nominal, IC50 determination
[9] = 0.14 μM nominal, 0.08 μM NSB corrected, follow-up assay
[10] = 1.24 μM nominal, 0.79 μM NSB corrected, follow-up assay
[11] = 10.00 μM nominal, 6.50 μM NSB corrected
[12] = 11.11 μM nominal, 6.11 μM NSB corrected, follow-up assay
[13] = 33.33 μM nominal, 20.33 μM NSB corrected, follow-up assay
[14] = 100.00 μM nominal, 67.00 μM NSB corrected
[15] = 100.00 μM nominal, […] NSB corrected, follow-up assay
[16] = […] nominal, 2.37 μM NSB corrected, follow-up assay

MATE2-K, sequence (Q86VL8 1-566 isoform Q86VL8-3): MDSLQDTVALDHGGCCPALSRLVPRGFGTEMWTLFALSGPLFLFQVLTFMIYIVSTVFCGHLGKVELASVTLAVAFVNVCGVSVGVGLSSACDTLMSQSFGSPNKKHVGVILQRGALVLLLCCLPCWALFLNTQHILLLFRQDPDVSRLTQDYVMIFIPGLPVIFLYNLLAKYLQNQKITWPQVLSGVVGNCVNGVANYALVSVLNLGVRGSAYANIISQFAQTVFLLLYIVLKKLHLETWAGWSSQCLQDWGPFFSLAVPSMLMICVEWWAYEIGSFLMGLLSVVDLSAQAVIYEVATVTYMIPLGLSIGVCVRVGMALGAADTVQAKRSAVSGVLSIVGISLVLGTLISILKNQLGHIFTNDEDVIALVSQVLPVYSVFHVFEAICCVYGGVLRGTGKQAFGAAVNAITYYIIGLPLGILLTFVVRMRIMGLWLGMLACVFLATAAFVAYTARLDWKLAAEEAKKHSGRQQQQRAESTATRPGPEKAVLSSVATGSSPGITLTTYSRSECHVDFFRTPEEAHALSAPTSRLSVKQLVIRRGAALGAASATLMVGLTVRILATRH

## OC1(c2ccc(Cl)cc2)c2ccccc2C2=NCCN21 (stereo not drawn) [Compound A, 5-(4-chlorophenyl)-2,3-dihydroimidazo[1,2-b]isoindol-5-ol, reference compound]
[1]
  IC50: 12.8 µM
[1]; [4]
  Relative transporter specific accumulation: 90.25 ± 3.17 % of control
  Transporter specific accumulation: 108.00 ± 2.98 cpm
[1]; [5]
  Relative transporter specific accumulation: 96.94 ± 8.16 % of control
  Transporter specific accumulation: 116.00 ± 9.43 cpm
[1]; [6]
  Relative transporter specific accumulation: 89.69 ± 6.53 % of control
  Transporter specific accumulation: 107.33 ± 7.45 cpm
[1]; 3.00 μM nominal
  Relative transporter specific accumulation: 97.37 ± 11.23 % of control
  Transporter specific accumulation: 86.33 ± 7.06 cpm
[1]; [7]
  Relative transporter specific accumulation: 51.81 ± 3.80 % of control
  Transporter specific accumulation: 62.00 ± 4.35 cpm
[1]; 30.00 μM nominal
  Relative transporter specific accumulation: 27.07 ± 4.56 % of control
  Transporter specific accumulation: 24.00 ± 3.54 cpm
[1]; [8]
  Relative transporter specific accumulation: 20.61 ± 1.94 % of control
  Transporter specific accumulation: 24.67 ± 2.26 cpm
[1]; human, Maximum % inhibition, MATE2-K, HEK293 cells, metformin (10 μM), NIO: no inhibition observed
  inhibition at 10 µM: 79%
[1]; human, Relative inhibition, 0.04 μM nominal, IC50 determination
  inhibition at 0.04 μM: 10%
[1]; human, Relative inhibition, 0.12 μM nominal, IC50 determination
  inhibition at 0.12 μM: 3%
[1]; human, Relative inhibition, 1.11 μM nominal, IC50 determination
  inhibition at 1.11 μM: 10%
[1]; human, Relative inhibition, 3.00 μM nominal
  inhibition at 3 μM: 3%
[1]; human, Relative inhibition, 10.00 μM nominal, IC50 determination
  inhibition at 10 µM: 48%
[1]; human, Relative inhibition, 30.00 μM nominal
  inhibition at 30 μM: 73%
[1]; human, Relative inhibition, 30.00 μM nominal, IC50 determination
  inhibition at 30 μM: 79%

## COCCOC1(c2ccc(Cl)cc2)c2ccccc2C2=NCCN21 (stereo not drawn) [Compound I-4]
[2]; 0 min
  Compound A formed (Aa/Ai): 0.55
  % Remaining: 100%
  Aa/Ai Mean (N = 2): 3.23
[2]; 5 min
  % Remaining: 105%
  Aa/Ai Mean (N = 2): 3.39
  Compound A formed (Aa/Ai): 0.61
[2]; 15 min
  % Remaining: 107%
  Aa/Ai Mean (N = 2): 3.46
  Compound A formed (Aa/Ai): 0.60
[2]; 30 min
  % Remaining: 101%
  Aa/Ai Mean (N = 2): 3.27
  Compound A formed (Aa/Ai): 0.53
[2]; 60 min
  % Remaining: 92.6%
  Aa/Ai Mean (N = 2): 2.99
  Compound A formed (Aa/Ai): 0.42
[2]
  T1/2: >3.12 h
[3]
  % hit rate: modest decrease in the % hit rate
  % correct: no statistically significant dose-related effects
  Magazine Head Entries: decreases in the number of premature responses, timeout responses, and magazine head entries
  Omissions: increase in the number of omissions
  number of trials completed: the number of trials completed was not affected
  perseverative responses: no statistically significant effects on perseverative responses
  premature responses: decrease in the number of premature responses
  response latencies (correct, incorrect): increases in the response and reward latencies
  reward latencies: increases in the response and reward latencies
  timeout responses: decreases in the number of premature responses, timeout responses, and magazine head entries

## Clc1ccc(C2(OCC3OCCO3)c3ccccc3C3=NCCN32)cc1 (stereo not drawn) [Compound I-19]
[2]; 0 min
  Compound A formed (Aa/Ai): 0.63
  % Remaining: 100%
  Aa/Ai Mean (N = 2): 1.80
[2]; 5 min
  % Remaining: 97.6%
  Aa/Ai Mean (N = 2): 1.76
  Compound A formed (Aa/Ai): 0.65
[2]; 15 min
  % Remaining: 97.2%
  Aa/Ai Mean (N = 2): 1.75
  Compound A formed (Aa/Ai): 0.63
[2]; 30 min
  % Remaining: 93.9%
  Aa/Ai Mean (N = 2): 1.69
  Compound A formed (Aa/Ai): 0.53
[2]; 60 min
  Aa/Ai Mean (N = 2): 1.25
  Compound A formed (Aa/Ai): 0.38
[2]
  T1/2: 1.95 h
[3]
  % hit rate: modest decrease in the % hit rate
  % correct: no statistically significant dose-related effects
  Magazine Head Entries: decrease in the number of premature responses, timeout responses, and magazine head entries
  Omissions: increase in the number of omissions
  number of trials completed: not significantly affected
  perseverative responses: no statistically significant effects on perseverative responses
  premature responses: decreases in the number of premature responses
  response latencies (correct, incorrect): modest increases in the response latencies
  reward latencies: not significantly affected
  timeout responses: decrease in the number of premature responses, timeout responses, and magazine head entries
[1]; [9]
  Relative inhibition: 5%
  Relative transporter specific accumulation: 95.22 ± 8.50 % of control
  Transporter specific accumulation: 99.67 ± 6.15 cpm
[1]; [10]
  Relative inhibition: 0%
  Relative transporter specific accumulation: 100.32 ± 8.62 % of control
  Transporter specific accumulation: 105.00 ± 5.96 cpm
[1]; [11]
  Relative inhibition: 14%
  Relative transporter specific accumulation: 85.87 ± 5.57 % of control
  Transporter specific accumulation: 154.00 ± 7.39 cpm
[1]; [12]
  Relative inhibition: 15%
  Relative transporter specific accumulation: 84.71 ± 5.61 % of control
  Transporter specific accumulation: 88.67 ± 1.33 cpm
[1]; [13]
  Relative inhibition: 44%
  Relative transporter specific accumulation: 56.05 ± 3.67 % of control
  Transporter specific accumulation: 58.67 ± 0.67 cpm
[1]; [14]
  Relative inhibition: 93%
  Relative transporter specific accumulation: 7.06 ± 5.01 % of control
  Transporter specific accumulation: 12.67 ± 8.97 cpm
[1]; [15]
  Relative inhibition: 86%
  Relative transporter specific accumulation: 14.01 ± 1.15 % of control
  Transporter specific accumulation: 14.67 ± 0.75 cpm
[1]; 2-concentration assay, Compound I-19 100 μM, Compound A 30 μM, Compound B 80 μM
  maximum inhibition of MATE2-K-mediated metformin accumulation: 93%
[1]; MATE2-K, HEK293 cells, metformin (10 μM), NIO: no inhibition observed
  Maximum % inhibition: 86%
[1]; [16]
  Relative inhibition: 1%
  Relative transporter specific accumulation: 99.36 ± 6.66 % of control
  Transporter specific accumulation: 104.00 ± 1.89 cpm
[1]; follow-up assay
  maximum inhibition of MATE2-K-mediated metformin accumulation: 86%
[1]; follow-up assay, NSB-corrected concentrations for Compound I-19
  IC50: 36.6 µM
